Converted amounts (≈) assume the structure as drawn.
Key:
[1] = tested on: Escherichia fergusonii (CU928158.2); assay: Antibacterial well diffusion; format: cell-based; conditions: 10 µL per well, mean ± SD
Excerpt: (§1) (CP017183.1), Escherichia fergusonii (CU928158.2), and Pseudomonas aeruginosa (NR-117678.1) and Gram-positive Staphylococcus aureus (CP011526.1) and Bacillus licheniformis (KX785171.1) using well diffusion and broth microdilution techniques as described by Berghe and […] [16]. The bacterial strains were suspended in a nutrient broth for 24 hr, and the suspension then spread on Mueller-Hinton agar. […] Amikacin was used as the positive control.

[2] = tested on: Klebsiella pneumonia (ATCC 700603); assay: Antibacterial well diffusion; format: cell-based; conditions: 10 µL per well, mean ± SD
Excerpt: as §1

[3] = tested on: Pseudomonas aeruginosa (ATCC 27853); assay: Antibacterial well diffusion; format: cell-based; conditions: 10 µL per well, mean ± SD
Excerpt: as §1

[4] = tested on: Staphylococcus aureus; assay: Antibacterial well diffusion; format: cell-based; conditions: 10 µL per well, mean ± SD
Excerpt: as §1

[5] = tested on: Bacillus cereus (ATCC 14579); assay: Antibacterial well diffusion; format: cell-based; conditions: 10 µL per well, mean ± SD
[6] = tested on: Escherichia fergusonii (CU928158.2); assay: Antibacterial broth microdilution (MIC); format: cell-based; conditions: read-out: MIC, E. fergusonii
Excerpt: as §1

[7] = tested on: Klebsiella pneumonia (ATCC 700603); assay: Antibacterial broth microdilution (MIC); format: cell-based; conditions: Klebsiella pneumoniae, ATCC700603, read-out: MIC, K. pneumonia
Excerpt: as §1

[8] = tested on: Pseudomonas aeruginosa (ATCC 27853); assay: Antibacterial broth microdilution (MIC); format: cell-based; conditions: ATCC27853, read-out: MIC, P. aeruginosa
Excerpt: as §1

[9] = tested on: Staphylococcus aureus; assay: Antibacterial broth microdilution (MIC); format: cell-based; conditions: read-out: MIC, S. aureus
Excerpt: as §1

[10] = tested on: Bacillus cereus (ATCC 14579); assay: Antibacterial broth microdilution (MIC); format: cell-based; conditions: ATCC14579, read-out: MIC, B. cereus
[11] = target: T1, PPARα (Homo sapiens, UniProt Q07869); assay: PPARα reporter gene assay (luciferase fold induction); format: cell-based; conditions: for PPAR alpha agonistic activity, fold induction: dual activation
T1 construct: expressed in transfected cells
T1 sequence (Q07869 1-468): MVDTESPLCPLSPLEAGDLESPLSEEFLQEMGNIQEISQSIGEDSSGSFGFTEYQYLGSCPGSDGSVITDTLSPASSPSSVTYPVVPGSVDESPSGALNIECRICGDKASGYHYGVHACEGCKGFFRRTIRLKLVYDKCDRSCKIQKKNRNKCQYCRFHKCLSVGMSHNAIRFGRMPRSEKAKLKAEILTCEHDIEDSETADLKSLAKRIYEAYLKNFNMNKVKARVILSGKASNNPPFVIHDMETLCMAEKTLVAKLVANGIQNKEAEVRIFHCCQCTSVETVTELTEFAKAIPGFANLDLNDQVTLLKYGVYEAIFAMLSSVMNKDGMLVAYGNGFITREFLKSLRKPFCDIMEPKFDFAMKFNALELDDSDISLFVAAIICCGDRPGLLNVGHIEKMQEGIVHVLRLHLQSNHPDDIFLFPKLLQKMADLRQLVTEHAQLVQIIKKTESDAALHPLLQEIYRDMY
Method: (§2) A reporter gene assay was carried out as described previously. Briefly, upon confluency, the different concentrations of the test samples were exposed to transfected cells for 24 hrs. Vehicle control was taken into consideration when the fold induction in luciferase activity was calculated. Both rosiglitazone and ciprofibrate were used as control drugs for PPARα and PPARγ, respectively.
(§3) Fold induction in the PPAR activity was detected in response to the methanol fraction and pure compounds according to untreated controls. A fold induction of 1.5 means a 50% increase in PPAR activity. […] Several studies have been carried out with the aim of exploring the potential of selective PPARγ modulators. The dual activator effect of P2 is in agreement with previous literature.

[12] = target: T2, PPARγ (Homo sapiens, UniProt P37231); assay: PPARγ reporter gene assay (luciferase fold induction); format: cell-based; conditions: for PPAR gamma agonistic activity, fold induction: dual activation
T2 construct: expressed in transfected cells
T2 sequence (P37231 1-505): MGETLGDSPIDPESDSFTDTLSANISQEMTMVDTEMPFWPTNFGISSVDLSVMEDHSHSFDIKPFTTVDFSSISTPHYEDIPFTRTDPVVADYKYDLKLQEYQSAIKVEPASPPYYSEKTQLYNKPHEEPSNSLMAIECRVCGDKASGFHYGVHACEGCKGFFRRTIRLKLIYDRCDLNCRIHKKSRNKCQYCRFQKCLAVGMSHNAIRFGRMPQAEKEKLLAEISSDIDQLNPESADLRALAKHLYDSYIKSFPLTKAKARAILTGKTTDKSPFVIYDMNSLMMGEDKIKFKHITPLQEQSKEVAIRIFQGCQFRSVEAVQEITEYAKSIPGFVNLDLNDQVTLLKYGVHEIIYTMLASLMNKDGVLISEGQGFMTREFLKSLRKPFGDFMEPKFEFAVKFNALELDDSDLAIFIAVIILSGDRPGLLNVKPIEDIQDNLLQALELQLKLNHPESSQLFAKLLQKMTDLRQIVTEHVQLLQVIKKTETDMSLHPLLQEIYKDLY
Method: as §2, §3

[13] = tested on: HepG2 cells; assay: Cellular antioxidant assay (decrease in oxidative stress, ABAP); format: cell-based, human
Method: Human hepatoma cell line (HepG2) was the cell line of choice in this study according to the previously described method. At a density of 60,000 cells/well, the HepG2 cells were seeded in a 96-well plate and incubated for 24 h for confluency. PBS was used for washing the cells, followed by samples treatment. The SpectraMax plate reader was used for reading the plates after addition of 600 μM of ABAP. The area under the curve (AUC) of fluorescence units and time were two parameters used for indication of the percent decrease in oxidative stress. Percent decrease in oxidative stress = 100 − ((AUC sample/AUC control) × 100). Quercetin was used as a positive control.

[14] = tested on: iNOS; assay: iNOS inhibition, nitrite level in LPS-treated macrophages (Griess); format: cell-based, mouse; conditions: for IC50: Mus musculus
Method: Mouse macrophage (RAW264.7) cells were seeded in the wells of 96-well plates followed by 24 hrs for confluency according to the method described previously. The test samples were treated with LPS (5 μg/mL) and followed by 24-hour incubation as well. The nitrite level in cell supernatant was measured by Griess reagent. The dose response curves gave indication for IC50 values. Parthenolide was used as positive control.

[15] = tested on: LLC-PK11; assay: Cytotoxicity assay (Borenfreund method, 48 h); format: cell-based; conditions: NA = no cytotoxic activity upto 100 µg/mL, read-out: Noncancer cells IC50, LLC-PK11
Method: (§4) Four human cancer cell lines (SK-OV-3, SK-MEL, BT-549 and KB) and two noncancerous kidney cell lines (VERO and LLC-PK1) were measured in the in vitro cytotoxic study. Test samples were added on the cell lines with variable concentrations, followed by 48 h incubation. According to the Borenfreund method, the cell viability was determined at the end of incubation, using doxorubicin as a positive control.

[16] = tested on: four cancerous cell lines as well as the two normal cell lines; assay: Cytotoxicity, whole panel; format: cell-based; conditions: all cell lines
Method: as §4

[17] = tested on: NF-κB; assay: NF-κB luciferase reporter gene assay in PMA-treated SW1353 cells; format: cell-based; conditions: Homo sapiens; SW1353, PMA 70 ng/mL 8 h; NA = no activity up to 100 µg/mL; read-out: NF-kB inhibition (IC50)
Method: According to the method described earlier, the 96-well plates with density of 1.25 × 10^5 cells per well were seeded with human chondrosarcoma cells (SW1353) transfected with NF-κB luciferase plasmid construct. After incubation for 24 h, cells were treated with the test samples for half an hour followed by PMA (70 ng/mL) for 8 h. Luciferase assay kit (Promega, Madison, WI, USA) was used for determination of luciferase activity, and parthenolide was used as the positive control in this test.

[18] = at 250 µg/mL for pure compounds
[19] = RAW264.7, LPS 5 µg/mL, 24 h, NA = no activity up to 100 µg/mL

## NCC[C@H](O)C(=O)N[C@@H]1C[C@H](N)[C@@H](O[C@H]2O[C@H](CN)[C@@H](O)[C@H](O)[C@H]2O)[C@H](O)[C@H]1O[C@H]1O[C@H](CO)[C@@H](O)[C@H](N)[C@H]1O [AMK, Amikacin, reference compound]
[1]
  ZOI diameter, E. fergusonii: 24 ± 1.5 mm
[2]
  ZOI diameter, K. pneumonia: 25 ± 0.8 mm
[3]
  ZOI diameter, P. aeruginosa: 18 ± 1.3 mm
[4]
  ZOI diameter, S. aureus: 24 ± 1 mm
[5]
  ZOI diameter, B. cereus: 20 ± 0.9 mm
[6]
  MIC: 4.5 µg/mL (≈ 7.68 µM)
[7]
  MIC: 5 µg/mL (≈ 8.54 µM)
[8]
  MIC: 8 µg/mL (≈ 13.7 µM)
[9]
  MIC: 6.2 µg/mL (≈ 10.6 µM)
[10]
  MIC: 7.3 µg/mL (≈ 12.5 µM)

## CC(C)(Oc1ccc(C2CC2(Cl)Cl)cc1)C(=O)O (stereo not shown) [Ciprofibrate, reference compound]
[11]; control drug at 10 µM, read-out: Fold induction PPAR alpha
  fold induction at 10 µM: 2.2

## O=c1c(O)c(-c2ccc(O)c(O)c2)oc2cc(O)cc(O)c12 [Compound P1, quercetin]
[11]
  PPAR alpha agonistic activity, fold induction: no PPAR agonistic activity
[12]
  PPAR gamma agonistic activity, fold induction: no PPAR agonistic activity
[13]; [18]
  % decrease in oxidative stress: 52%
[13]; positive control at 50 µM
  % decrease in oxidative stress: 75%
[14]; RAW264.7, 24 h, RAW264.7, LPS 5 µg/mL, 24 h, NA = no activity up to 100 µg/mL
  IC50: 25 µg/mL (≈ 82.7 µM)
[14]; [19]
  iNOS inhibition (IC50): 48 µg/mL
[15]
  IC50: 55 µg/mL (≈ 182 µM)
[16]
  Cytotoxicity (in words): not cytotoxic
[1]
  ZOI diameter, E. fergusonii: 16.3 ± 0.57 mm
[2]
  ZOI diameter, K. pneumonia: 21.3 ± 1.15 mm
[3]
  ZOI diameter, P. aeruginosa: 21 ± 1 mm
[4]
  ZOI diameter, S. aureus: 18 ± 1 mm
[5]
  ZOI diameter, B. cereus: 19.3 ± 1.15 mm
[6]
  MIC: 9.3 µg/mL (≈ 30.8 µM)
[7]
  MIC: 6.2 µg/mL (≈ 20.5 µM)
[8]
  MIC: 6.6 µg/mL (≈ 21.8 µM)
[9]
  MIC: 8.3 µg/mL (≈ 27.5 µM)
[10]
  MIC: 8.4 µg/mL (≈ 27.8 µM)

## Oc1cc(O)c2c(c1)O[C@@H](c1ccc(O)c(O)c1)[C@H](O)C2 [Compound P2, (-)-catechin]
[11]; 12.5 µg/mL, 24 hrs, NA = not active, read-out: Fold induction PPAR alpha
  fold induction at 12.5 µg/mL: 1.19
[11]; 25 µg/mL, 24 hrs, NA = not active, read-out: Fold induction PPAR alpha
  fold induction at 25 µg/mL: 1.31
[11]; 50 µg/mL, 24 hrs, NA = not active, read-out: Fold induction PPAR alpha
  fold induction at 50 µg/mL: 1.47
[11]
  PPAR alpha agonistic activity, fold induction: ≥ 1.5 fold
[12]; 12.5 µg/mL, 24 hrs, NA = not active, read-out: Fold induction PPAR gamma
  fold induction at 12.5 µg/mL: 1.19
[12]; 25 µg/mL, 24 hrs, NA = not active, read-out: Fold induction PPAR gamma
  fold induction at 25 µg/mL: 1.55
[12]; 50 µg/mL, 24 hrs, NA = not active, read-out: Fold induction PPAR gamma
  fold induction at 50 µg/mL: 1.53
[12]
  PPAR gamma agonistic activity, fold induction: ≥ 1.5 fold
[13]; [18]
  % decrease in oxidative stress: 39%
[14]
  iNOS inhibition (in words): showed iNOS inhibition
[14]; [19]
  IC50: > 50 µg/mL
[15]
  IC50: 16 µg/mL (≈ 55.1 µM)
[16]
  Cytotoxicity (in words): not cytotoxic
[1]
  ZOI diameter, E. fergusonii: 8 ± 1 mm
[6]
  MIC: 11 µg/mL (≈ 37.9 µM)

## O=C(Oc1cc(O)cc2c1C[C@@H](O)[C@H](c1ccc(O)c(O)c1)O2)c1cc(O)c(O)c(O)c1 [Compound P3, 2S,3R-3,3′,4′,5,7-pentahydroxyflavane-5-O-gallate]
[11]
  PPAR alpha agonistic activity, fold induction: no PPAR agonistic activity
[12]
  PPAR gamma agonistic activity, fold induction: no PPAR agonistic activity
[13]; [18]
  % decrease in oxidative stress: 57%
[14]
  iNOS inhibition (in words): did not show any
[16]
  Cytotoxicity (in words): not cytotoxic

## C=C1C(=O)O[C@H]2[C@H]1CC/C(C)=C/CC[C@@]1(C)O[C@@H]21 [Parthenolide, reference compound]
[14]; [19]
  IC50: 0.35 ± 0.22 µg/mL (≈ 1.41 µM)
[17]
  IC50: 0.5 ± 0.21 µg/mL (≈ 2.01 µM)

## CN(CCOc1ccc(CC2SC(=O)NC2=O)cc1)c1ccccn1 (stereo not shown) [Rosiglitazone, reference compound]
[12]; control drug at 10 µM, read-out: Fold induction PPAR gamma
  fold induction at 10 µM: 3.7
